Results: patent publication US4729995A, “Pyrimidine 2,4-dioxamate compounds and pharmaceutical compositions” (Toyo Boseki Kabushiki Kaisha, priority 1986, dated 1988)
Where two headings read alike, the source gives them in different places.

Tests used:
[1] = test system: PCA (passive cutaneous anaphylaxis); experiment: Passive cutaneous anaphylaxis (PCA) inhibition in rats (Experiment 2); assay type: in vivo, Wistar rats; settings: Rattus norvegicus, read-out: PCA inhibitory rate; for inhibition in vivo at 200 mg/kg: 200 mg/kg oral, one hour before induction of PCA, six rats (Table 2); for inhibition in vivo at 3 mg/kg: 3 mg/kg intravenous, 5 minutes before antigen challenge, six rats (Table 5); for inhibition in vivo at 30 mg/kg: 30 mg/kg oral
Experimental: Wistar rats (male, weighing about 200 g) were passively sensitized by an intradermal injection of each 0.1 ml of anti-egg albumin rat serum both sides of median line on back of the animals (each two points, totally 4 points). After 48 hours, a mixture (1 ml) of egg albumin and Evans blue was injected via tail vein, by which PCA (passive cutaneous anaphylaxis) was induced. After 30 minutes, the blue colored region was cut out and the amount of color was measured by the method of Katayama et al [cf. Microbiol. Immunol., Vol. 22, page 89 (1978)]. One hour before the induction of PCA, each test compound was orally administered to six rats at a dose of 200 mg/kg per each rat.
In the above experiments, the test compound was orally administered to six rats at a dose of 30 mg/kg per each rat one hour before the antigen challenge.
In the above experiments, the test compound was orally administered to six rats at a dose of 30 mg/kg per each rat 30 minutes before the antigen challenge.
In the above experiments, the test compound was intravenously administered to six rats at a dose of 3 mg/kg per each rat 5 minutes before the antigen challenge.

SRS-A release = experiment: Inhibition of SRS-A release from passively sensitized guinea pig lung suspension, bioassay on isolated guinea pig ileum (Experiment 1); assay type: cell-based, Hartley guinea pig; settings: Cavia porcellus, 37° C, read-out: Release inhibitory rate, SRS-A
Experimental: (§1) Hartley guinea pig (male, weighing about 400 g) was passively sensitized by an intravenous injection of anti-egg albumin guinea pig serum. 48 hours after the sensitization, the lung was taken out and cut finely to prepare a lung suspension. To the suspension were added a test compound and egg albumin, and the mixture was incubated at 37° C. After the reaction, the mixture was centrifuged, and then the amount of histamine and SRS-A in the supernatant was measured. The amount of histamine was measured by a fluorometry in accordance with the method of May et al [cf. J. Allerg., Vol. 40, page 12 (1970)]. The amount of SRS-A was measured by a bioassay using an isolated guinea pig ileum. That is, the guinea pig ileum was suspended within Magnus vessel, and thereto were added an antihistaminic, an antiacetylcholine agent and a test solution, and based on the shrink of guinea pig ileum, the amount of SRS-A was calculated.

Histamine release = experiment: Inhibition of histamine release from passively sensitized guinea pig lung suspension (Experiment 1); assay type: cell-based, Hartley guinea pig; settings: Cavia porcellus, 37° C, fluorometry, read-out: Release inhibitory rate, Histamine
Experimental: as §1

[2] = 1 h, one hour before antigen challenge, six rats (Table 3)
[3] = 30 minutes before antigen challenge, six rats (Table 4)

For `CCOC(=O)C(=O)Nc1cc(Cl)nc(NC(=O)C(=O)OCC)n1` [diethyl 4-chloropyrimidine-2,6-dioxamate monohydrate], the inhibition in vivo at 200 mg/kg ([1]; 1 h) was 41.7%, the inhibition at 100 µM (SRS-A release) was 52.7% and the inhibition at 100 µM (Histamine release) was 24.5%.

Compound `O=C(O)C(=O)Nc1cc(N2CCOCC2)nc(NC(=O)C(=O)O)n1` [6-morpholinopyrimidine-2,4-dioxamic acid hydrate] has an inhibition in vivo at 3 mg/kg [1] of 100%, an inhibition at 100 µM (SRS-A release) of 47.3% and an inhibition at 100 µM (Histamine release) of 21.2%.

Work on `COC(=O)C(=O)Nc1cc(N2CCCC2)nc(NC(=O)C(=O)OC)n1` [dimethyl 6-pyrrolidinopyrimidine-2,4-dioxamate] yielded an inhibition in vivo at 30 mg/kg [1, 2] of 81.2%, an inhibition at 100 µM (SRS-A release) of 40.2% and an inhibition at 100 µM (Histamine release) of 19.9%.

Compound `O=C(Nc1cc(N2CCCCC2)nc(NC(=O)C(=O)OCc2ccccc2)n1)C(=O)OCc1ccccc1` [dibenzyl 6-piperidinopyrimidine-2,4-dioxamate semihydrate] has an inhibition at 100 µM (SRS-A release) of 48.6% and an inhibition at 100 µM (Histamine release) of 26.5%.

With `CCCOC(=O)C(=O)Nc1cc(N2CCCCC2)nc(NC(=O)C(=O)OCCC)n1` [di-n-propyl 6-piperidinopyrimidine-2,4-dioxamate] the inhibition at 100 µM (SRS-A release) was 52.3% and the inhibition at 100 µM (Histamine release) was 31.6%.

Work on `CCOC(=O)C(=O)Nc1cc(N2CCCCC2)nc(NC(=O)C(=O)OCC)n1` [diethyl 6-piperidinopyrimidine-2,4-dioxamate] yielded an inhibition in vivo at 200 mg/kg ([1]; 1 h) of 92.4%, an inhibition in vivo at 3 mg/kg [1] of 100% and an inhibition in vivo at 30 mg/kg [1, 3] of 90.6%. The inhibition at 100 µM (SRS-A release) was 46.6% and the inhibition at 100 µM (Histamine release) was 12.2%.

Compound `CCOC(=O)C(=O)Nc1cc(OC)nc(NC(=O)C(=O)OCC)n1` [diethyl 6-methoxypyrimidine-2,4-dioxamate monohydrate] has an inhibition in vivo at 200 mg/kg ([1]; 1 h) of 83.4%, an inhibition at 100 µM (SRS-A release) of 57.6% and an inhibition at 100 µM (Histamine release) of 44.2%.

`CCCOC(=O)C(=O)Nc1cc(N2CCOCC2)nc(NC(=O)C(=O)OCCC)n1` [di-n-propyl 6-morpholinopyrimidine-2,4-dioxamate] showed an inhibition at 100 µM (SRS-A release) of 50% and an inhibition at 100 µM (Histamine release) of 29.8%.

`CCOC(=O)C(=O)Nc1cc(N2CCOCC2)nc(NC(=O)C(=O)OCC)n1` [diethyl 6-morpholinopyrimidine-2,4-dioxamate] was tested, and the inhibition in vivo at 200 mg/kg ([1]; 1 h) was 96.6%, the inhibition in vivo at 30 mg/kg [1, 3] was 91.7% and the inhibition at 100 µM (SRS-A release) was 52.6%. It also gave an inhibition at 100 µM (Histamine release) of 36.2%.

`COC(=O)C(=O)Nc1cc(N2CCCCC2)nc(NC(=O)C(=O)OC)n1` [dimethyl 6-piperidinopyrimidine-2,4-dioxamate] showed an inhibition in vivo at 200 mg/kg ([1]; 1 h) of 85.6%, an inhibition in vivo at 30 mg/kg [1, 3] of 54.4% and an inhibition at 100 µM (SRS-A release) of 50%. For the same compound, the inhibition at 100 µM (Histamine release) was 32.1%.

`CCOC(=O)C(=O)Nc1cc(N2CCN(C)CC2)nc(NC(=O)C(=O)OCC)n1` [diethyl 6-(4-methylpiperazino)pyrimidine-2,4-dioxamate] was tested, and the inhibition at 100 µM (SRS-A release) was 33.3% and the inhibition at 100 µM (Histamine release) was 23.7%.

`O=C(O)C(=O)Nc1cc(N2CCCCC2)nc(NC(=O)C(=O)O)n1` [6-piperidinopyrimidine-2,4-dioxamic acid hydrate] showed an inhibition in vivo at 3 mg/kg [1] of 100%, an inhibition at 100 µM (SRS-A release) of 43.2% and an inhibition at 100 µM (Histamine release) of 20.5%.

Work on `CCOC(=O)C(=O)Nc1cc(N2CCCC2)nc(NC(=O)C(=O)OCC)n1` [diethyl 6-pyrrolidinopyrimidine-2,4-dioxamate] yielded an inhibition in vivo at 200 mg/kg ([1]; 1 h) of 87.3%, an inhibition in vivo at 30 mg/kg [1, 3] of 73.1% and an inhibition at 100 µM (SRS-A release) of 32.8%. For the same compound, the inhibition at 100 µM (Histamine release) was 16.1%.

`O=C(Nc1cc(N2CCOCC2)nc(NC(=O)C(=O)OCc2ccccc2)n1)C(=O)OCc1ccccc1` [dibenzyl 6-morpholinopyrimidine-2,4-dioxamate] gave an inhibition at 100 µM (SRS-A release) of 52.6% and an inhibition at 100 µM (Histamine release) of 31.1%.

`CC(C)OC(=O)C(=O)Nc1cc(N2CCOCC2)nc(NC(=O)C(=O)OC(C)C)n1` [diisopropyl 6-morpholinopyrimidine-2,4-dioxamate] was tested, and the inhibition in vivo at 3 mg/kg [1] was 100%, the inhibition at 100 µM (SRS-A release) was 59.9% and the inhibition at 100 µM (Histamine release) was 30.8%.

For `COC(=O)C(=O)Nc1cc(N2CCCCCC2)nc(NC(=O)C(=O)OC)n1` [dimethyl 6-homopiperidinopyrimidine-2,4-dioxamate], the inhibition in vivo at 30 mg/kg [1, 2] was 76.9%, the inhibition at 100 µM (SRS-A release) was 49.2% and the inhibition at 100 µM (Histamine release) was 26.3%.

`COC(=O)C(=O)Nc1cc(N2CCOCC2)nc(NC(=O)C(=O)OC)n1` [dimethyl 6-morpholinopyrimidine-2,4-dioxamate] gave an inhibition in vivo at 30 mg/kg [1, 2] of 98.5%, an inhibition in vivo at 3 mg/kg [1] of 100% and an inhibition at 100 µM (SRS-A release) of 47.3%. For the same compound, the inhibition at 100 µM (Histamine release) was 27.7%.
